# Values joined by “and” are separate entries in the source; they are usually repeats but may differ in a detail not shown here. Equal entries are not always repeated. Where two headings read alike, the source gives them in different places. Where a SMILES comes first, the peptide text is derived from it. Bridges are numbered along the chain shown (N, C = ends). [ ]: non-standard residue; d: D form. The star is where a group is joined. Asp(3S-OH) = N[C@H](C(=O)O)[C@H](O)C(=O)O; Thr(4-Cl) = N[C@H](C(=O)O)[C@H](O)CCl; X1 = CCCCCCCCC[C@@H](O)CC(=O)*; dDab = NCC[C@@H](N)C(=O)O; Dab = NCC[C@H](N)C(=O)O; Dhb = C/C=C(\N)C(=O)O
# Tests used:
# [1] = test system: MDBK cells; assay: Cytotoxicity of Syr-E to MDBK host cells (LDH assay, visual observation); assay type: cell-based, bovine; conditions: for Syr-E related cytotoxicity (LDH assay) compared to infected and untreated control: Syr-E 5, 10, 15, 20 μg/ml tested
# Excerpt: (§1) Madin-Darby bovine kidney (MDBK) epithelial cells were also used to culture C. parvum in this study. Dulbecco's modified Eagle medium (DMEM) with 10% FBS was used for routine passage of MDBK cells purchased from American Type Collection for Culture (Rockville, Md.). Mycoplasma contamination was periodically checked with Hoechst staining (Uphoff et al., 1992). At confluence, MDBK cells were lifted from culture flasks with trypsin, enumerated, and redistributed to assay plates. Ninety-six well cell culture plates were employed to assess cytotoxicity of testing agents or the parasite or both to host cells using neutral red staining or lactic dehydrogenase (LDH) assay.
# A volume of 10 μl/well culture supernatant was pipetted into a 96-well plate and mixed with 50 μl/well substrate solution containing 0.75 mM sodium pyruvate and 1 mg beta-NADH/ml. Following incubation at 37° C. for 30 min, the plate was added with 50 μl of 2,4-dinitrophenylhydrazine/well and kept at 25° C. for 20 min., and then the plate was added with a volume of 200 μl/well of 0.6 N NaOH, mixed well, and retained at 25° C. for 10 min. prior to being quantified by the Microplate Autoreader with a wavelength set at 515 nm.
# (§2) A single concentration of Syr-E at 15 μg/ml was used to treat MDBK cells at pH 7 with C. parvum infection. Group 1 served as an infection control, receiving no Syr-E treatment. Syr-E was administered 1 day prior to parasite inoculation to groups 2, 4, and 5, at the inoculation day to groups 3-5, and 1 day post inoculation to groups 3 and 5, respectively. Following specified administration day(s), supernatants of corresponding wells containing Syr-E were removed and replaced with fresh DMEM base. Cytotoxicity was monitored using lactic dehydrogenase (LDH) assay on day 1 post inoculation. Three coverslips from each group were collected on days 2 and 5 post inoculation, were fixed, and were stained with the specific IFA, as described with reference to Example II.
# Group 1 received neither Syr-E treatment nor inoculation and its cytotoxicity was set at 0%, as illustrated on day 2. Group 2 received only C. parvum inoculation serving as an infection control. Groups 3-6 received both the inoculation and Syr-E treatments at 5, 10, 15, and 20 μg/ml, respectively. Data in FIG. 4 are presented as the means +/- standard errors of the mean. […] Cytotoxicity of Syr-E to host cells was measured using LDH assay on both days 1 and 2 post inoculation. More (P<0.01) cytotoxicity was shown on day 1 post inoculation than day 2 post inoculation. […] Overall, more cytotoxicity was observed as Syr-E concentrations increased.
# [2] = test system: C. parvum; assay type: cell-based, C. parvum (bovine isolate); conditions: MDBK cells; for Infection % (Day 5) / Infection % (Day 2): % of untreated control; for Infection % (Day 2): mean ± SEM
# Procedure: C. parvum (bovine isolate) oocysts used in this study were originally donated by the U.S. Department of Agriculture, Ames, Iowa. The oocysts were isolated from calf manure, preserved in 2.5% potassium dichromate at 4° C., and used within 3 months of purification. Oocysts were decontaminated by suspension in 20% (vol/vol) 1.05% sodium hypochlorite on ice for 20 minutes. Oocysts were then washed three times in Hanks' balanced salt solution ("HBSS") and once in RPMI 1640 (available from Sigma, St. Louis, Mo.). Release of sporozoites was achieved by incubating oocysts in an excystation solution consisting of 0.25% (wt/vol) trypsin (available from Sigma, St. Louis, Mo.) and 0.75% (wt/vol) taurodeoxycholic acid (available from Sigma) in HBSS. The resulting suspension was incubated at 37° C. for 45 minutes and microscopically observed to confirm sporozoite release. Sporozoites were completely separated from intact oocysts and oocyst walls by passage through sterile polycarbonate filters (3 micron pore size, available from Millipore Corp., Bedford, Mass.) twice prior to inoculation of bovine fallopian tube epithelial ("BFTE") cell monolayers.
# Coverslips were removed at 5, 24, 48, 72, 96, and 120 hours from the inoculated wells containing monolayers of BFTE cells. The coverslips were washed in RPMI 1640, fixed in 100% methanol for 10 minutes, rinsed twice with 25 mM PBS, and stained with an indirect immunofluorescent assay (IFA) using monoclonal antibody (Mab) 5H11. Mab 5H11 specifically reacts with an antigen present on intermediate stages of C. parvum development. Coverslips were then mounted on glass slides and examined under oil immersion (1000×), using […] microscopy. Parasites were enumerated by counting all developmental stages of C. parvum present in a single scan (67 fields) through the center of each coverslip. The data were statistically compared for significance, using analysis of variance (Fischer's protected least-significant-difference test using a "STATVIEW" statistical analysis application developed by Abacus Concepts, Inc., Berkeley, Calif.).
# as §1
# For enumeration of C. parvum development in culture, 24-well plates were used with a sterile glass coverslip placed in each well. DMEM base was used at and post C. parvum inoculation.
# as §2
# Therefore, MDBK cells were employed to explore the inhibitory effect of Syr-E on C. parvum development in vitro, as shown in FIG. 3. […]
# [3] = Group 2: Syr-E 15 μg/ml, 1 day, prior to inoculation, pH 7
# [4] = Group 3: Syr-E 15 μg/ml, 2 days, at and post inoculation, pH 7
# [5] = Group 4: Syr-E 15 μg/ml, 2 days, prior to and at inoculation, pH 7
# [6] = Group 5: Syr-E 15 μg/ml, 3 days, prior to, at, and post inoculation, pH 7
smiles,measurement,setting,value
"C/C=C1\NC(=O)[C@H](Cc2ccccc2)NC(=O)[C@H](CCCNC(=N)N)NC(=O)[C@H](CCN)NC(=O)[C@@H](CCN)NC(=O)[C@@H](CO)NC(=O)[C@@H](NC(=O)C[C@H](O)CCCCCCCCC)COC(=O)[C@H]([C@H](O)CCl)NC(=O)[C@H]([C@H](O)C(=O)O)NC1=O [Syr-E, Syringomycin-E] (X1-S[dS][dDab][Dab]RF[Dhb][Asp(3S-OH)][Thr(4-Cl)]; ester 1-C)",visual cell damage,"[1]; Syr-E 15 μg/ml, MDBK cells, pH 7, Table 1 schedule",no visual cell damage observed
same,"cytotoxicity by LDH assay, treatment schedule groups vs untreated control","[1]; Syr-E 15 μg/ml, MDBK cells, pH 7, day 1 post inoculation, Table 1 schedule",failed to show significant differences between groups except group 3
same,visible cell damage on cell monolayers,"[1]; Syr-E 5-20 μg/ml, MDBK cells, pH 7.0",No obvious cell peeling or plaques formed on cell monolayers
same,Syr-E related cytotoxicity (LDH assay) compared to infected and untreated control,"[1]; pH 7.0, day 1 post inoculation",cytotoxicity appeared at 20 μg/ml on day 1 post inoculation
same,Syr-E related cytotoxicity (LDH assay) compared to infected and untreated control,"[1]; pH 7.0, day 2 post inoculation",15 and 20 μg/ml on day 2 post inoculation
same,Infection % (Day 5),[2]; [3],22% and 21.9%
same,Infection % (Day 2),[2]; [3],13% and 12.9 ± 2.7%
same,Infection % (Day 5),[2]; [4],11.7%
same,Infection % (Day 2),[2]; [4],10.2 ± 2.1%
same,Infection % (Day 5),[2]; [5],1.4%
same,Infection % (Day 2),[2]; [5],1.1 ± 0.2%
same,Infection % (Day 5),[2]; [6],1.0%
same,Infection % (Day 2),[2]; [6],0.9 ± 0.1%
same,infection percentage of the untreated control,"[2]; Syr-E 15 μg/ml, day 5 post inoculation",14.7%
same,infection percentage,"[2]; Syr-E 15 μg/ml, treatment prior to and at the inoculation, pH 7, day not given",approximately 1%
